Results published in patent US9220746B2, “Compounds and methods for treating bone disorders and controlling weight” (The University of North Carolina at Chapel Hill, priority 2009, dated 2015).

Key:
[1] = test system: primary mouse preadipocytes; experiment: Differentiation of primary mouse preadipocytes, oil red O staining; format: cell-based; settings: peptide 2 ng to 2 ug/ml
Description: The maximum effect of the peptide was to inhibit differentiation to a level wherein <20% of the cells were positive. These findings were reconfirmed using primary mouse preadipocytes. 35-50 day old mice were killed and inguinal fat pads were removed aseptically. Fat tissue was washed and dissolved in Hanks basic salt solution containing 0.1% glucose and 2 mg/ml collagenase, (type 3 Worthington) and 4% BSA. Following 15 min digestion at 37°, the tissue was separated by dispersion and pipetting and then filtered through an 80 micron sterile nylon filter. The cells were then plated in DMEM F12 containing 10% fetal calf serum and then centrifuged at 700×g to separate the stromal vascular cells from the adipocytes, which float. The supernatant was discarded and the cell pellet which contained the stromal vascular cells was resuspended in DMEM F12 with 10% FCS and plated at a density of 15,000 cells/cm^2. The medium was aspirated 24 hr later and fresh medium was replaced every 3 days until the cells reached 80-90% confluence. Differentiation was induced by adding serum free medium containing 25 mM glucose, 10 ug/ml transferin, 10 nM T3, 10-7 dexamethasone, 5 ug/ml HDL and 16.7 nM insulin. This was added to cultures that were between […]. […] The IGFBP-2 had been purified from cellular conditioned medium and was determined to be homogenous by amino acid sequence analysis.

[2] = test system: mouse metatarsal bones; experiment: Ex vivo metatarsal explant bone growth and mineralization; format: cell-based; settings: for bone growth and calcification: metatarsals derived from IGFBP-2−/− mice, 20-200 ng/ml
Source text: This system uses an ex vivo explant system, therefore it is a transition between cultured cells and in vivo experiments. The bone forming tissue is removed directly from a mouse and then grown in organ culture for several days. The test additives can be added directly to the medium at any concentration in order to test for biological activity. The method is as follows: mouse metatarsal bones were isolated from newborn mice between days 0 and 3 after birth using the dissecting microscope. The middle three metatarsals were used for all experiments. Three metatarsals were incubated per well in a 24 well tissue culture dish in DMEM containing 0.5% bovine serum, […], 1 mM beta glycerol phosphate at 37° C. The medium was replaced one day later and the metatarsals are cultured for up to 10 days. Growth was measured by quantitative increase in size, both length and width of the bones using an inverted phase microscope with a built in micrometer scaling bar for measurements. Mineralization was assessed by the addition of calcein (500 ng/ml) to the medium for 2 hrs prior to tissue fixation. Fluorescent images were captured using a digital camera attached to an inverted microscope and quantifying calcein fluorescence under the appropriate […] stimulus. Bone and cartilage histology were measured by fixing the bones in 4% PFA overnight and storing at 70% ethanol, followed by […] embedding sectioning and staining. Sections were stained with H&E, Alizaran red or alkaline phosphatase. For analysis of proteins, the tissue was homogenized in Laemmli sample buffer and gels were run using standard SDS polyacrylamide gel electrophoresis and western blotting.

[3] = test system: metacarpals; experiment: Metacarpal culture ex vivo (calcein incorporated area, length, width); format: cell-based, mouse; settings: 10 days, IGFBP2 200 ng/ml, peptides 2 μg/ml, vs PBS
Description: FIG. 2. The heparin binding domain of IGFBP2 enhances periosteal expansion of metacarpals ex vivo. Metacarpals were collected from day 1 male mouse, and treated with osteogenic media with IGFBP2 (200 ng/ml) or the heparin-binding domain peptide (HBD-peptide) (2 μg/ml) in the presence or absence of IGF-1 (20 ng/ml) for 10 days. Bones were labeled with calcein (500 ng/ml) and calcein incorporated area was visualized (a) and longitudinal length of calcein incorporated area was quantified (b). Alcian blue and Von Kossa double staining was performed (c) and length and width of metacarpals were quantified (d). Statistical difference was analyzed by ANOVA followed by Bonferroni post-hoc test. Figures shown represent at least 3 independent experiments. Values are expressed as the mean±SEM (n=3-4). ^a; <0.05 vs PBS, ^b; <0.01 vs PBS, ^c; <0.001 vs PBS, ^d; <0.01 vs HBD, ^e; <0.05 vs IGF-I, ^f; <0.05 vs HBD.
Metacarpals were isolated from Igfbp2^−/− mice at 1-day old and incubated in DMEM containing 0.5% BSA, 50 μg/ml ascorbic acid and 1 mM β-glycerol phosphate for 10 days^54. Stimulants were added to culture media from day 1. At day 10, metacarpals were incubated in media containing calcein (500 ng/ml) for 2 hours for staining of calcium deposition, and images were obtained. Then, bones were fixed with 4% PFA, embedded in paraffin, and processed for Alcian blue and von Kossa double staining.

## KHHLGLEEPKKLR (IGFBP-2 heparin binding domain-containing peptide sequence) [peptide of SEQ ID NO:1]
[1]
  inhibition of adipocyte differentiation: reconfirmed
[2]
  bone growth and calcification: stimulated bone growth and calcification
[2]; metatarsals from normal mice
  effect on bone growth: modest additional stimulatory effect

B1: IGFBP-2: Insulin-like growth factor binding protein-2, 36,000 dalton protein, purified from cellular conditioned medium (protein, UniProt P18065 36-325, looked up)
Insulin-like growth …: AEVLFRCPPCTPERLAACGPPPVAPPAAVAAVAGGARMPCAELVREPGCGCCSVCARLEGEACGVYTPRCGQGLRCYPHPGSELPLQALVMGEGTCEKRRDAEYGASPEQVADNGDDHSEGGLVENHVDSTMNMLGGGGSAGRKPLKSGMKELAVFREKVTEQHRQMGKGGKHHLGLEEPKKLRPPPARTPCQQELDQVLERISTMRLPDERGPLEHLYSLHIPNCDKHGLYNLKQCKMSLNGQRGECWCVNPNTGKLIQGAPTIRGDPECHLFYNEQQEARGVHTQRMQ
[3]; IGF-1 20 ng/ml
  calcein incorporated area of metacarpals: significantly enhanced
[3]
  width (and length) of metacarpals: increased the width of metacarpals
[2]
  bone growth and calcification: stimulated bone growth and calcification
